Test results from PubChem BioAssay (NCI).
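Values below derive from 48-hour exposures of cells grown in 96-well plates, with endpoints linearly interpolated between the two concentrations bracketing the appropriate inhibition level. At the TGI there is no net growth.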

Tests used:
Test in all cases: DTP human tumour cell line panel, 48 h
NCI-H460 lung = test system: NCI-H460 lung
K-562 leukemia = test system: K-562 leukemia
786-0 renal = test system: 786-0 renal
RXF 393 renal = test system: RXF 393 renal
HCT-15 colon = test system: HCT-15 colon
HOP-62 NSCLC = test system: HOP-62 NSCLC
MALME-3M melanoma = test system: MALME-3M melanoma
COLO 205 colon = test system: COLO 205 colon
M14 melanoma = test system: M14 melanoma
SF-268 CNS = test system: SF-268 CNS
SK-OV-3 ovarian = test system: SK-OV-3 ovarian
A498 renal = test system: A498 renal
HCT-116 colon = test system: HCT-116 colon
SNB-78 CNS = test system: SNB-78 CNS
OVCAR-4 ovarian = test system: OVCAR-4 ovarian
KM12 colon = test system: KM12 colon
SNB-19 CNS = test system: SNB-19 CNS
NCI-H23 lung = test system: NCI-H23 lung
CAKI-1 renal = test system: CAKI-1 renal
SK-MEL-2 melanoma = test system: SK-MEL-2 melanoma
IGROV1 ovarian = test system: IGROV1 ovarian
ACHN renal = test system: ACHN renal
LXFL 529 NSCLC = test system: LXFL 529 NSCLC
UACC-62 melanoma = test system: UACC-62 melanoma
HCC-2998 colon = test system: HCC-2998 colon
A549 NSCLC = test system: A549 NSCLC
SN12C renal = test system: SN12C renal
SF-539 CNS = test system: SF-539 CNS
SW-620 colon = test system: SW-620 colon
OVCAR-5 ovarian = test system: OVCAR-5 ovarian
LOX IMVI melanoma = test system: LOX IMVI melanoma
U251 CNS = test system: U251 CNS
TK-10 renal = test system: TK-10 renal
DMS 273 small cell lung = test system: DMS 273 small cell lung
UACC-257 melanoma = test system: UACC-257 melanoma
DMS 114 small cell lung = test system: DMS 114 small cell lung
EKVX NSCLC = test system: EKVX NSCLC
SK-MEL-5 melanoma = test system: SK-MEL-5 melanoma
CCRF-CEM leukemia = test system: CCRF-CEM leukemia
SF-295 CNS = test system: SF-295 CNS
HL-60(TB) leukemia = test system: HL-60(TB) leukemia
KM20L2 colon = test system: KM20L2 colon
SK-MEL-28 melanoma = test system: SK-MEL-28 melanoma
HT29 colon = test system: HT29 colon
UO-31 renal = test system: UO-31 renal
DLD-1 colon = test system: DLD-1 colon
HOP-92 NSCLC = test system: HOP-92 NSCLC
NCI-H226 lung = test system: NCI-H226 lung
SNB-75 CNS = test system: SNB-75 CNS
HOP-18 NSCLC = test system: HOP-18 NSCLC
NCI-H522 lung = test system: NCI-H522 lung
SR leukemia = test system: SR leukemia
OVCAR-8 ovarian = test system: OVCAR-8 ovarian
RPMI-8226 leukemia = test system: RPMI-8226 leukemia
MOLT-4 leukemia = test system: MOLT-4 leukemia
M19-MEL melanoma = test system: M19-MEL melanoma
OVCAR-3 ovarian = test system: OVCAR-3 ovarian
XF 498 CNS = test system: XF 498 CNS

Measured: TGI

N#CCC(=O)N1CCCCCCC1
91.7 µM: DMS 114 small cell lung
78 µM: HL-60(TB) leukemia
30.5 µM: HCT-15 colon
21.3 µM: SW-620 colon
28.9 µM: COLO 205 colon
not listed: HOP-92 NSCLC | NCI-H226 lung | SNB-75 CNS | HOP-18 NSCLC | NCI-H522 lung | SR leukemia | OVCAR-8 ovarian | RPMI-8226 leukemia | MOLT-4 leukemia | M19-MEL melanoma | OVCAR-3 ovarian | XF 498 CNS
> 100 µM: all other assays above

COc1ccc(N2C(=O)C3c4[nH]c5ccccc5c4C4CCCCC4C3C2=O)cc1 (centres undefined)
35.8 µM: HOP-62 NSCLC
22 µM: HCT-116 colon
38.6 µM: U251 CNS
84.9 µM: LXFL 529 NSCLC
51.9 µM: A549 NSCLC
37.7 µM: EKVX NSCLC
55.1 µM: HL-60(TB) leukemia
17.5 µM: SNB-75 CNS
40.7 µM: HCC-2998 colon
25.2 µM: SR leukemia
23.9 µM: DMS 273 small cell lung
25.8 µM: MALME-3M melanoma
23.8 µM: 786-0 renal
64.3 µM: IGROV1 ovarian
53.5 µM: SK-MEL-2 melanoma
50.3 µM: HOP-92 NSCLC
58.8 µM: TK-10 renal
55.6 µM: RXF 393 renal
23.6 µM: OVCAR-4 ovarian
29.1 µM: CCRF-CEM leukemia
33.3 µM: UACC-62 melanoma
36 µM: SF-295 CNS
26.4 µM: SF-268 CNS
32.8 µM: SF-539 CNS
73.8 µM: K-562 leukemia
42.4 µM: SK-MEL-28 melanoma
12.1 µM: SNB-78 CNS
54.4 µM: A498 renal
67.7 µM: HOP-18 NSCLC
66 µM: SK-MEL-5 melanoma
28.6 µM: OVCAR-8 ovarian
36.9 µM: MOLT-4 leukemia
52.7 µM: SK-OV-3 ovarian
not listed: XF 498 CNS
> 100 µM: all other assays above

NC(CSSCC(N)Cc1ccccc1)Cc1ccccc1 (centres undefined)
30.9 µM: NCI-H522 lung
91.7 µM: SR leukemia
63.4 µM: M14 melanoma
84.4 µM: LOX IMVI melanoma
94 µM: KM12 colon
44.9 µM: UACC-62 melanoma
50.4 µM: SK-MEL-5 melanoma
57.2 µM: XF 498 CNS
88.7 µM: SK-MEL-2 melanoma
74.4 µM: HL-60(TB) leukemia
not listed: RXF 393 renal | CAKI-1 renal | SF-539 CNS | DMS 273 small cell lung | HOP-92 NSCLC | NCI-H226 lung | SNB-75 CNS | HOP-18 NSCLC
> 100 µM: all other assays above

COc1ccc(C[C@H](N)C(=O)N2C[C@@H](CO)C[C@@H](n3ccc(=O)[nH]c3=O)C2)cc1
not listed: 786-0 renal | A498 renal | SNB-78 CNS | UACC-257 melanoma | SF-295 CNS | SNB-75 CNS | XF 498 CNS
> 100 µM: all other assays above
